The results in this text go back to patent US9446027B2, “Use of pidotimod to treat irritable bowel syndrome” (POLICHEM SA, priority 2013, dated 2016).

Square brackets hold non-standard residues; d marks the D form. Peptide text beside a SMILES is read from it. pGlu = O=C1CC[C@@H](C(=O)O)N1; Thz = O=C(O)[C@@H]1CSCN1

The subject of this experiment is irritable bowel syndrome. Kind of experiment: Open label pilot trial in patients with IBS: overall and extracolonic IBS scores. The note with it: nine IBS patients, oral solution of Example 4 twice a day, after 12 weeks. It is filed as in vivo, human. The text has this: Nine patients with IBS aged 25 to 60 years (5 female) were enrolled in an open label pilot trial to receive twice a day the composition as per the Example 4. IBS was diagnosed according to Rome II criteria for the diagnosis of IBS (Rasquin-Weber A: Childhood functional gastrointestinal disorders, Gut 1999;45 (Suppl II): II60-II68). Rome II Criteria for the Diagnosis of IBS: at least 12 weeks, which need not be consecutive, in the preceding 12 months of abdominal discomfort or pain that has at least two of the following three features: • 1. Relieved by defecation. • 2. Onset associated with changes in stool frequency. • 3. Onset associated with changes in stool form.
The overall IBS scores (IBS Symptoms, Pain severity, Pain frequency, Bloating, Bowel habit dissatisfaction, Life interference) and extracolonic IBS scores were assessed at 4, 8, and 12 weeks during treatment.

For `O=C1CC[C@@H](C(=O)N2CSC[C@H]2C(=O)O)N1` [Pidotimod, (4R)-3-(5-oxo-L-prolyl)-1,3-thiazolidine-4-carboxylic acid] ([pGlu]-[Thz]-OH), the “post-treatment overall extracolonic IBS score” value (baseline 240, P<0.001) is recorded as 90. In addition, for the setting “baseline 315, P<0.05”, the “overall IBS score (IBS Symptoms, Pain severity, Pain frequency, Bloating, Bowel habit dissatisfaction, Life interference)” value is 175.
